In patent US20160278375A1, “BISCATIONIC AND TRISCATIONIC AMPHIPHILES AS ANTIMICROBIAL AGENTS” (Temple University of the Commonwealth System of Higher …, priority 2013, published 2016):

Legend:
B. subtilis = conditions: pH 7.4; cited from earlier work
S. aureus = conditions: pH 7.4; cited from earlier work
[1] = system: pre-established Staph aureus biofilms; assay: visual disruption of pre-established biofilms; type: cell-based; conditions: disperses biofilms
Protocol: Compound (12,2,0,2,12) causes a visual disruption of pre-established Staph aureus biofilms at 25 μM (micromolar). Thus it at least disperses biofilms at 25 μM.

[2] = system: S. aureus, E. faecalis, E. coli and P. aeruginosa; assay: MIC determination, statements across the bacteria tested; type: cell-based; conditions: S. aureus, E. faecalis, E. coli, P. aeruginosa; read-out: MIC values against all four bacterial species tested
Protocol: For the compounds above, respective minimum inhibitory concentration (MIC) values against the Gram-positive S. aureus, E. faecalis, Gram-negative E. coli and P. aeruginosa were determined, respectively, by standard methods. […] Cell viability was verified by serial dilution and plating on MH agar. Both aqueous and fresh media positive controls were performed for each trial. Overnight bacterial cultures of Staphylococcus aureus (SH1000), Enterococcus faecalis (OG1RF), Escherichia coli (MC4100), and Pseudomonas aeruginosa (PAO1-WT) were grown in Mueller-Hinton broth at 37° C., with all but E. faecalis under shaking Overnight cultures were diluted to approximately 10^6 cfu/mL as determined by OD measurement at 640 nm and plating on MH agar.
Each compound was serially diluted two-fold with water from 1 mM down to 1 μM yielding twelve dilutions per compound. In triplicate, 100 µL of each dilution were pipetted into the appropriate well of a 96-well microtiter plate, and then […] of overnight bacterial culture diluted to ca. 10^6 cfu/mL were inoculated into each well. Microtiter plates were incubated at 37° C. for 72 hours. Up to seven compounds were tested against one bacterial species at twelve decreasing concentrations per 96-well plate.

SMILES | MBIC B. subtilis (B. subtilis) [µM] | MBIC S. aureus (S. aureus) [µM] | concentration causing visual disruption of pre-established biofilms [1] [µM] | MIC [2] [µM]
N=C(N=C(N)N)Nc1cccc(NC(=N)N=C(N)N)c1 [Compound 11a] | 30 | 300 | – | –
N=C(N=C(N)N)Nc1cccc(NC(=N)N=C(N)N)c1 [Compound 11b] | 7 ± 3 | 750 ± 250 | – | –
CCCCCCCCCCCC[N+](C)(C)CCN(C)CC[N+](C)(C)CCCCCCCCCCCC.[Br-].[Br-] [Compound 12, 2, 0, 2, 12] | – | – | 25 | ≤ 4
